The values that follow come from patent publication US20240082212A1, “USE OF MDMA FOR TREATMENT OF STRESS-RELATED DISORDERS” (priority 2022, published 2024).

Series [1] relates to L-type calcium channel phenylalkylamine binding site. The series can be described thus: Eurofins Panlabs radioligand binding panel, L-type calcium channel. Further details: species or system Rat. To be noted: for % inhibition of binding or activity: 10 uM; for IC50 / Ki: 10 half-log concentrations, 0.3 nM to 10 μM, duplicate.
The target in series [2] is Nicotinic acetylcholine α3β4 (Homo sapiens, UniProt P30926+P32297). The series can be described thus: Eurofins Panlabs radioligand binding panel, nicotinic acetylcholine α3β4.
In another series the target is T1, Serotonin 5-HT2C (Homo sapiens, UniProt P28335).
T1 sequence (P28335 33-458): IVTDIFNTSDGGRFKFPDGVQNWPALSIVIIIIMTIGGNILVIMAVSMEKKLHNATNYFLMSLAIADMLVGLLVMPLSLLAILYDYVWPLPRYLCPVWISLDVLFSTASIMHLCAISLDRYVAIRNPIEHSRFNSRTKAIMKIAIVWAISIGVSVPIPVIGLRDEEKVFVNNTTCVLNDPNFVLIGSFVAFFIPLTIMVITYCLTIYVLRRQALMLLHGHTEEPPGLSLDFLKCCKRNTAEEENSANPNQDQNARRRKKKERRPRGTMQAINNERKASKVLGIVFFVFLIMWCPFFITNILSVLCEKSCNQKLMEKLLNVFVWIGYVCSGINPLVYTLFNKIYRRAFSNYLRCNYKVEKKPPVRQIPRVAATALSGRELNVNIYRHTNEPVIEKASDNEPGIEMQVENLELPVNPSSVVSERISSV
The series can be described thus: biochemical. Format: binding.

The test system of the next series is C57BL/6 mice. The series can be described thus: Mouse locomotor activity over 11 days after single administration. On the procedure:
Methods. Male C57BL/6 mice (n=10-12 per group) from Jackson Laboratories, US (10-12 weeks of age), were assigned randomly to treatment groups. The animals were acclimated to the laboratory for at least five days prior to experimental manipulation. […] Standard rodent chow and water were available ad libitum, except during experimental test sessions. Animals were maintained in a controlled environment, and temperature and humidity were recorded continuously in the holding room.
The animal procedures were conducted according to established and approved protocols. On each experimental day, animals were acclimated to a procedure room adjacent to the testing room for at least 30 minutes prior to the start of experimental sessions. To evaluate acute compound effects on activity, an animal was administered a single dose of test article 30 minutes prior to individual placement in a novel test chamber on experimental day 1. Activity was detected using photo beams (e.g., 16×16 beams with a space of 2 cm between beams, Med Associates®) and recorded using the Activity Monitor™ program designed by Med Associates®. The primary endpoint was total distance traveled (cm), as a measure of locomotion. Additional activity measures included total ambulatory counts, ambulatory time (sec), vertical counts and vertical time (sec). All endpoints were recorded and analyzed over a 30-minute test period. At the end of the test session, each animal was returned to its home cage. To evaluate potential lasting effects on activity following single administration of compounds, each animal was re-evaluated in the same test chamber on experimental days 2, 6, and 11, without additional test article administration.
Animals were randomly assigned to treatment groups and testing was conducted in a manner counterbalancing treatment groups. Activity measures were analyzed statistically using 2-way analysis of variance (ANOVA) with experimental day as the within-subjects factor and treatment as the between-subjects factor. Following a significant overall ANOVA (p<0.05), post hoc comparisons between test article and vehicle conditions were made using Fisher's Least Significant Difference (LSD, p<0.05).

[3] abbreviates: read-out: % inhibition of binding or activity.
Setting [4] is: R-MDMA all 3 dose levels (10, 17, 30 mg/kg IP), only on Day 1.
Setting [5] is: racemic MDMA 7.8 mg/kg IP, Day 1, persisted out to Day 2, vs vehicle.
The mark [6] stands for this setting: racemic MDMA 7.8 mg/kg IP, any day of testing (Days 1, 2, 6, 11).

Chain of Nicotinic acetylcholine α3β4 (P32297 32-505): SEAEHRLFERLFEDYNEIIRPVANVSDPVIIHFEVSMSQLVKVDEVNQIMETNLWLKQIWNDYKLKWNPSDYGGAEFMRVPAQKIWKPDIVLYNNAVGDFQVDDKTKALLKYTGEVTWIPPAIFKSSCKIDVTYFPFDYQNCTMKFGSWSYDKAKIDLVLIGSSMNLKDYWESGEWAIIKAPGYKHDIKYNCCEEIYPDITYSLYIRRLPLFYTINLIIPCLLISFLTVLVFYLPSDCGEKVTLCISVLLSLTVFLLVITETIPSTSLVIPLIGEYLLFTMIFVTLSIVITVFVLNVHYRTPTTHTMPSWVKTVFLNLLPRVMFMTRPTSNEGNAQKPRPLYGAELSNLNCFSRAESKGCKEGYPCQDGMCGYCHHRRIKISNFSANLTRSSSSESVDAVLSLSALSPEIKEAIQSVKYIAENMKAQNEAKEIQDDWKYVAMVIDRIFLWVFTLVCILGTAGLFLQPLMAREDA
Chain of Nicotinic acetylcholine α3β4 (P30926 22-498): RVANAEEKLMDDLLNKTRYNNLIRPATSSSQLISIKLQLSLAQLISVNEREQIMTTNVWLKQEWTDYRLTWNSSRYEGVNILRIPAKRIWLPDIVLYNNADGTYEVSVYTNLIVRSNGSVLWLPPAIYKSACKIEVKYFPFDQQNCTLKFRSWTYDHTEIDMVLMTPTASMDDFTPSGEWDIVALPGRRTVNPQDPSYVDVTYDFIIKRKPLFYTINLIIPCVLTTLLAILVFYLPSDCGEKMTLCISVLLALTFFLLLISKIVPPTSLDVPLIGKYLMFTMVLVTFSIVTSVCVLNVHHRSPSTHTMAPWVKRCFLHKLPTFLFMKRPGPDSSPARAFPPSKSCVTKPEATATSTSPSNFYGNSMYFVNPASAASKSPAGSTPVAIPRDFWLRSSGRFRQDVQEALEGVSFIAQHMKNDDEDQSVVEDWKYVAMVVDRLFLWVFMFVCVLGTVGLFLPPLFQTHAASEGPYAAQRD

For orientation: IC50 means the concentration at which inhibition is half-maximal. By Ki is commonly meant the equilibrium dissociation constant of an inhibitor or competing ligand from its target. For the compound `CNC(C)Cc1ccc2c(c1)OCO2` (single isomer, unassigned) [S-MDMA, S(+)-MDMA], in series [1], the “% inhibition of binding or activity” value turned out to be 51%, the half-maximal inhibitory concentration (IC50) was found to be 9.31 µM and the Ki was 9.05 µM.

For orientation: inhibition means the drop in the measured response relative to a control, in per cent. For the compound `CNC(C)Cc1ccc2c(c1)OCO2` (single isomer, unassigned) [R-MDMA, R(−)-3,4-methylenedioxymethamphetamine], in series [1], the “% inhibition of binding or activity” value came out at 55%, the IC50 amounted to 9.5 µM and the Ki was 9.23 µM. In addition, in series [2] (setting [3]), the inhibition at 10 µM amounted to 55%. Also, the inhibition at 10 µM on Serotonin 5-HT2C (setting [3]) is 78%. Also, the total ambulatory time entry in the series with C57BL/6 mice (R-MDMA 2 highest doses (17, 30 mg/kg IP), only on Day 1) is listed as “significantly increased”. Further, the total distance traveled entry in the series on C57BL/6 mice (R-MDMA 10, 17, 30 mg/kg IP, any dose, any day of testing) is on record as “no significant increase”. Further, in the series on C57BL/6 mice (setting [4]), the total vertical counts result is given as “significantly reduced” and the total vertical time entry is reported as “significantly reduced”. Also, in the series with C57BL/6 mice (R-MDMA highest dose (30 mg/kg IP), only on Day 1), the total ambulatory counts entry is “significantly increased”. The total vertical time entry with C57BL/6 mice (R-MDMA lowest dose (10 mg/kg IP), day 2 only) is “significant increase”.

Regarding `CNC(C)Cc1ccc2c(c1)OCO2` (racemic) [Racemic MDMA, 3,4-methylenedioxymethamphetamine], the “% inhibition of binding or activity” value in series [2] (10 uM) amounted to 66%. In addition, at Serotonin 5-HT2C (10 µM), the “% inhibition of binding or activity” value was determined as 87%. In addition, the total distance traveled result with C57BL/6 mice (racemic MDMA 7.8 mg/kg IP, Day 1, persisted out to Day 2, 30-minute test, vs vehicle) is “significantly increased”. Moreover, in the series on C57BL/6 mice (setting [5]), the total ambulatory counts entry is reported as “increased” and the total ambulatory time entry is “increased”. Besides, in the series on C57BL/6 mice (setting [6]), the total vertical counts entry is reported as “did not alter” and the total vertical time entry was “did not alter”.
